Like-named read-outs stand apart in the source and are kept apart here.
How the values were obtained:
SREBP-1 [1] = conditions: HepG2 cells, FIG. 5A
SREBP-1 [2] = conditions: rat primary cultured liver cells, FIG. 5A
SREBP-1 [3] = conditions: H4IIE cells, FIG. 5A
[4] = Experimental: (§1) Male C57BL/6 mice (average weight of 25 to 30 g) as test animals were purchased from Charles River Orient (Seoul, Korea). For at least one week before being tested, the mice were acclimatized to the surrounding environment in the animal test research center of the College of Pharmacy, Seoul National University, that is, humidity of 55±5%, temperature of 22±2° C., and controlled ventilation. The mice were repeatedly and alternately exposed to light and then placed in the dark for a time interval of 12 hours (from 7 A.M. to 7 P.M). […] The weight and state of the mice were measured once a week. Two groups of mice were respectively raised with a high lipid diet (Dyets Inc., Bethlehem) and a normal diet for 10 weeks. For the last four weeks in each case, oltipraz (10 or 30 mg/kg, 3 times/week) was administered to the mice (FIG. 1). Each group consisted of a total of 10 mice.
LXRα/RXRα complex = LXRα/RXRα complex (Homo sapiens, UniProt Q13133); conditions: LXRα and RXRα overexpressed; nuclear fraction; FIG. 3B
Experimental: Whether a binding capability of LXRE is changed by oltipraz treatment was identified by gel-shift assay. LXRE double-stranded oligonucleotide of a SREBP-1c gene was labeled with a radio active isotope at 5′-terminal by using [γ-^32P]ATP and T4 polynucleotide kinase, and then the labeled probe (1 ml, >10^6 cpm) was reacted with nuclear fraction proteins in a binding buffer solution. The reaction solution was subjected to electrophoresis in 4% polyacrylamide gel and then assayed by autoradiography. […] DNA binding specificity was identified by cold probe titration and supershift assay. For the cold probe titration, 20 times greater (molar base) un-labeled oligonucleotides were reacted in advance.

ACC = conditions: high lipid diet 10 weeks; oltipraz 10-30 mg/kg, 3 times/week, last four weeks; p<0.01; FIG. 9
Experimental: as §1
(§2) Total RNA (2 μg) and d(T)16 primer which were extracted from the liver of mice, and an AMV reverse transcriptase were used to obtain cDNA. The relative amounts of genes were quantified by realtime RT-PCR using a CyBr green dye. The realtime RT-PCR was Light-cycler^2.0 produced by Roche (Mannheim, Germany).

FAS = conditions: high lipid diet 10 weeks; oltipraz 10-30 mg/kg, 3 times/week, last four weeks; p<0.01; FIG. 9
Experimental: as §1, §2

SREBP-1 [5] = conditions: high lipid diet 10 weeks; oltipraz 10-30 mg/kg, 3 times/week, last four weeks; p<0.01; FIG. 4
Experimental: as §1, §2

LXRα = conditions: high lipid diet 10 weeks; oltipraz 10-30 mg/kg, 3 times/week, last four weeks; p<0.01; FIG. 2
Experimental: as §1, §2

SREBP-1 [6] = conditions: HepG2 cells treated with T0901317; nuclear fraction; FIG. 5B
[7] = within 12 hours after treatment
[8] = whole cell extract, co-treated with T0901317

Chain of LXRα/RXRα complex (Q13133 whole entry, one chain of several): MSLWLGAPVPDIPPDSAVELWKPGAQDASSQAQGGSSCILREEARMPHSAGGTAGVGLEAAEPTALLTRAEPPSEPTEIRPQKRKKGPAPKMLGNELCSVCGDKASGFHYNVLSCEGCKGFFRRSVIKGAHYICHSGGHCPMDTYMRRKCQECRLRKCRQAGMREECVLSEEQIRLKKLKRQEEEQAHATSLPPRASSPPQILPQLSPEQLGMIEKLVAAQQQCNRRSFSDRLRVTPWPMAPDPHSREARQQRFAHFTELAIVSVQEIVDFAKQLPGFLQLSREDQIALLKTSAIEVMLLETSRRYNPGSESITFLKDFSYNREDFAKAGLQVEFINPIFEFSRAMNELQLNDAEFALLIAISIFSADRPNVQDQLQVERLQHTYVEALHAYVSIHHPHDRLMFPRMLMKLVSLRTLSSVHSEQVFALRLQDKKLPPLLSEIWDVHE

SMILES	expression of SREBP-1 protein after LXRα activator alone (SREBP-1 [1]; [7])	expression of SREBP-1 protein after LXRα activator alone (SREBP-1 [2]; [7])	expression of SREBP-1 protein after LXRα activator alone (SREBP-1 [3]; [7])	T0901317-increased expression of SREBP-1 protein (SREBP-1 [1]; [8])	T0901317-increased expression of SREBP-1 protein (SREBP-1 [2]; [8])	T0901317-increased expression of SREBP-1 protein (SREBP-1 [3]; whole cell extract, co-treated with T0901317, FIGS. 6-8)	red part dyed with Oil-Red-O in liver tissue ([4]; HFD+Oltipraz versus HFD+vehicle, FIG. 11)	amount of triglyceride in liver tissues ([4]; high lipid diet 10 weeks, oltipraz administered, p<0.01, FIG. 10)	binding capability of LXRα with respect to DNA (LXRE) (LXRα/RXRα complex)	increase in ACC expression (mRNA, relative to normal diet group) (ACC)	increase in FAS expression (mRNA, relative to normal diet group) (FAS)	increase in SREBP-1 expression (mRNA, relative to normal diet group) (SREBP-1 [5])	increase in LXRα expression (mRNA, relative to normal diet group) (LXRα)	increased nuclear localization of SREBP-1 (SREBP-1 [6])
O=S(=O)(c1ccccc1)N(CC(F)(F)F)c1ccc(C(O)(C(F)(F)F)C(F)(F)F)cc1 [compound 10901317]	remarkably increased	remarkably increased	remarkably increased	–	–	–	–	–	–	–	–	–	–	–
Cc1c(-c2cnccn2)ssc1=S [oltipraz, 4-methyl-5-(2-pyrazinyl)-1,2-dithiol-3-thione]	–	–	–	concentration-dependently reduced	concentration-dependently reduced	concentration-dependently reduced	remarkably reduced	significantly reduced	substantially decreased	inhibited	inhibited	inhibited	inhibited	concentration-dependently reduced
